Experimental data reported in ChEMBL document CHEMBL1201862, “PubChem BioAssay data set” (2004).
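Interpolation was linear, between the two tested concentrations surrounding the appropriate level; five concentrations were tested over 48 hours in 96-well plates. At the GI50, growth is halved.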 Calls of active or inactive are those of the source. No stated cut-off is given here; in the data, active = GI50 up to about 1.1 µM and inactive = higher.

Tests used:
Assay in all cases: NCI-60 cell line screen, 48 h
NCI/ADR-RES = system: NCI/ADR-RES
UACC-257 = system: UACC-257
SNB-75 = system: SNB-75
MOLT-4 = system: MOLT-4
OVCAR-4 = system: OVCAR-4
KM12 = system: KM12
UACC-62 = system: UACC-62
MDA-MB-435 = system: MDA-MB-435
COLO 205 = system: COLO 205
SK-MEL-5 = system: SK-MEL-5
M14 = system: M14
Hs-578T = system: Hs-578T
SK-MEL-2 = system: SK-MEL-2
OVCAR-8 = system: OVCAR-8
SF-295 = system: SF-295
RPMI-8226 = system: RPMI-8226
SW-620 = system: SW-620
SF-539 = system: SF-539
NCI-H522 = system: NCI-H522
HL-60 = system: HL-60

Measured: GI50

O=C1/C(=C/c2ccccc2)NC(=S)N1CN1CCCCC1
inactive: NCI/ADR-RES > 100 µM | UACC-257 16.3 µM | SNB-75 > 100 µM | MOLT-4 > 100 µM | OVCAR-4 15 µM | KM12 > 100 µM | UACC-62 > 100 µM | MDA-MB-435 > 100 µM | COLO 205 > 100 µM | SK-MEL-5 > 100 µM | M14 > 100 µM | Hs-578T > 100 µM | SK-MEL-2 > 100 µM | OVCAR-8 > 100 µM | SF-295 > 100 µM | RPMI-8226 > 100 µM | SW-620 > 100 µM

CCOC(=O)[C@@H]1ON2O[C@H](OC3CCCCC3c3ccccc3)C[C@H]3OC(=O)[C@@H]1C32 (some centres undefined)
inactive: NCI/ADR-RES > 100 µM | SF-539 > 100 µM | UACC-257 > 100 µM | SNB-75 > 100 µM | MOLT-4 > 100 µM | KM12 80 µM | UACC-62 > 100 µM | MDA-MB-435 > 100 µM | COLO 205 > 100 µM | SK-MEL-5 > 100 µM | M14 > 100 µM | Hs-578T > 100 µM | NCI-H522 67.6 µM | OVCAR-8 > 100 µM | SF-295 > 100 µM | RPMI-8226 > 100 µM | SW-620 > 100 µM

C[C@H](c1ccccc1)N1C(=O)[C@@H](O)[C@H]1[C@H](CO)OCc1ccccc1
inactive: NCI/ADR-RES > 100 µM | UACC-257 > 100 µM | SNB-75 > 100 µM | MOLT-4 > 100 µM | OVCAR-4 > 100 µM | KM12 > 100 µM | UACC-62 > 100 µM | MDA-MB-435 > 100 µM | COLO 205 > 100 µM | SK-MEL-5 > 100 µM | M14 > 100 µM | Hs-578T > 100 µM | SK-MEL-2 > 100 µM | OVCAR-8 > 100 µM | SF-295 95.3 µM | RPMI-8226 > 100 µM | SW-620 > 100 µM

Cc1ccc(/N=C2\OP(=O)(Nc3ccc(C)cc3)Oc3ccccc32)cc1 (centres undefined)
inactive: NCI/ADR-RES > 100 µM | SF-539 > 100 µM | UACC-257 > 100 µM | SNB-75 36.4 µM | MOLT-4 > 100 µM | OVCAR-4 > 100 µM | KM12 > 100 µM | UACC-62 > 100 µM | MDA-MB-435 > 100 µM | HL-60 > 100 µM | COLO 205 > 100 µM | SK-MEL-5 73.1 µM | M14 29.3 µM | Hs-578T > 100 µM | SK-MEL-2 > 100 µM | OVCAR-8 > 100 µM | SF-295 > 100 µM | SW-620 > 100 µM

CC1(C)C(CCO)CC1n1ccc(=O)[nH]c1=O (centres undefined)
inactive: NCI/ADR-RES > 100 µM | SF-539 > 100 µM | UACC-257 > 100 µM | SNB-75 > 100 µM | OVCAR-4 > 100 µM | KM12 > 100 µM | UACC-62 > 100 µM | MDA-MB-435 > 100 µM | SK-MEL-5 > 100 µM | M14 > 100 µM | Hs-578T > 100 µM | SK-MEL-2 > 100 µM | SF-295 > 100 µM | SW-620 > 100 µM

N#Cc1c2ccc([N+](=O)[O-])cc2c(=O)n2c1sc1ccccc12
inactive: NCI/ADR-RES 18.4 µM | UACC-257 78.5 µM | SNB-75 42.2 µM | OVCAR-4 20.6 µM | KM12 31.6 µM | UACC-62 28 µM | MDA-MB-435 57.7 µM | HL-60 19.3 µM | COLO 205 6.87 µM | SK-MEL-5 22 µM | Hs-578T 48 µM | SK-MEL-2 17.3 µM | OVCAR-8 35.2 µM | RPMI-8226 9.93 µM | SW-620 18.9 µM

CCn1c(SCc2nnc(Nc3ccccc3)s2)nc2ccccc2c1=O
inactive: NCI/ADR-RES 2.59 µM | SF-539 3.27 µM | UACC-257 11.8 µM | SNB-75 3.85 µM | MOLT-4 42.6 µM | OVCAR-4 1.82 µM | KM12 2.38 µM | UACC-62 3.3 µM | MDA-MB-435 10.3 µM | COLO 205 16.1 µM | SK-MEL-5 8.15 µM | M14 10.4 µM | Hs-578T 2.39 µM | NCI-H522 2.09 µM | SK-MEL-2 5.14 µM | OVCAR-8 2.02 µM | SF-295 2.52 µM | RPMI-8226 5.5 µM | SW-620 16.8 µM

c1cncc(-c2ncc3cccnc3n2)c1
inactive: NCI/ADR-RES > 100 µM | SF-539 > 100 µM | UACC-257 > 100 µM | SNB-75 > 100 µM | MOLT-4 > 100 µM | OVCAR-4 > 100 µM | KM12 > 100 µM | UACC-62 > 100 µM | HL-60 > 100 µM | COLO 205 > 100 µM | SK-MEL-5 > 100 µM | Hs-578T > 100 µM | NCI-H522 > 100 µM | SK-MEL-2 > 100 µM | OVCAR-8 > 100 µM | SF-295 > 100 µM | RPMI-8226 > 100 µM | SW-620 > 100 µM

O=C1C(=c2cc3c(c4ccccc24)=NC24CCCCC2C(c2ccccc2)C=C(c2ccccc2)N34)C(=O)c2ccccc21 (centres undefined)
inactive: SF-539 41.1 µM | UACC-257 > 100 µM | SNB-75 54 µM | MOLT-4 16.6 µM | OVCAR-4 15.5 µM | KM12 30.4 µM | MDA-MB-435 22 µM | HL-60 27.7 µM | COLO 205 33 µM | SK-MEL-5 26.4 µM | M14 44 µM | Hs-578T 34 µM | NCI-H522 16.7 µM | SK-MEL-2 42.5 µM | OVCAR-8 50.4 µM | SF-295 > 100 µM | RPMI-8226 11.4 µM | SW-620 37.7 µM

COc1ccc2c(c1)CCC/C2=N\NS(=O)(=O)c1c(C)cc(C)cc1C
inactive: NCI/ADR-RES 21.7 µM | SF-539 19.2 µM | UACC-257 39.2 µM | SNB-75 13.8 µM | MOLT-4 25.5 µM | OVCAR-4 29.9 µM | KM12 16 µM | UACC-62 18.7 µM | MDA-MB-435 27.7 µM | COLO 205 23.9 µM | SK-MEL-5 17.3 µM | M14 33.2 µM | Hs-578T 30.6 µM | SK-MEL-2 34.3 µM | OVCAR-8 30.9 µM | SF-295 34.4 µM | SW-620 28.1 µM

COC(=O)C(=O)C(C(=O)C(=O)Nc1cc(C)ccc1C)c1nc2ccccc2nc1O (centres undefined)
inactive: NCI/ADR-RES > 100 µM | SF-539 > 100 µM | UACC-257 > 100 µM | SNB-75 > 100 µM | MOLT-4 71.3 µM | OVCAR-4 > 100 µM | KM12 > 100 µM | UACC-62 87.7 µM | MDA-MB-435 > 100 µM | COLO 205 > 100 µM | SK-MEL-5 > 100 µM | M14 > 100 µM | Hs-578T 74.3 µM | NCI-H522 > 100 µM | SK-MEL-2 > 100 µM | OVCAR-8 > 100 µM | SF-295 > 100 µM | RPMI-8226 19.6 µM | SW-620 > 100 µM
